Data as given in BigSolDB 2.1.

CC1=NN(c2ccccc2)C(=O)C1
solubility (mole fraction)
Settings	283.15 K	288.15 K	293.15 K	298.15 K	303.15 K	308.15 K	313.15 K	318.15 K	323.15 K	328.15 K
in 1,2-dichloroethane	0.0262	0.0304	0.0358	0.0417	0.0496	0.058	0.0676	0.0767	0.089	–
in 2-butanone	0.02	0.024	0.0313	0.0372	0.0437	0.0557	0.0678	0.081	0.121	–
in MIBK	0.0107	0.0138	0.0198	0.0243	0.0311	0.0365	0.0414	0.0495	0.0609	–
in dimethyl carbonate	0.0118	0.0138	0.0166	0.0201	0.0257	0.0316	0.0384	0.0458	0.0573	–
in ethyl lactate	0.0293	0.0319	0.0352	0.0392	0.0424	0.0486	0.0531	0.0594	0.0735	–
in isobutyl acetate	–	0.0109	0.0123	0.0142	0.0162	0.0192	0.0229	0.0268	0.0309	0.0367
in isopentanol	0.0191	0.021	0.023	0.0261	0.0282	0.0312	0.0353	0.0403	0.0466	–
in isopropyl acetate	0.00972	0.0117	0.0141	0.0162	0.0187	0.0223	0.0265	0.032	0.036	–
in methyl acetate	0.0161	0.0182	0.0201	0.0237	0.0266	0.0299	0.0349	0.0422	0.0477	–
in n-butyl acetate	0.0124	0.0142	0.0164	0.0195	0.0227	0.0265	0.0305	0.037	0.0423	–
in n-hexane	0.000173	0.000226	0.000394	0.00052	0.000662	0.000963	0.00136	0.00172	0.00211	–
in n-propyl acetate	0.0142	0.0169	0.0197	0.0228	0.0276	0.0318	0.0384	0.0451	0.0551	–
